The text below walks through data of patent publication US20250270200A1, “CTPS1 INHIBITORS AND USES THEREOF” (Nimbus Clotho, Inc., priority 2022, published 2025).

The target in this assay is T1, human CTPS1 (Homo sapiens, UniProt P17812).
T1 sequence (P17812 1-591): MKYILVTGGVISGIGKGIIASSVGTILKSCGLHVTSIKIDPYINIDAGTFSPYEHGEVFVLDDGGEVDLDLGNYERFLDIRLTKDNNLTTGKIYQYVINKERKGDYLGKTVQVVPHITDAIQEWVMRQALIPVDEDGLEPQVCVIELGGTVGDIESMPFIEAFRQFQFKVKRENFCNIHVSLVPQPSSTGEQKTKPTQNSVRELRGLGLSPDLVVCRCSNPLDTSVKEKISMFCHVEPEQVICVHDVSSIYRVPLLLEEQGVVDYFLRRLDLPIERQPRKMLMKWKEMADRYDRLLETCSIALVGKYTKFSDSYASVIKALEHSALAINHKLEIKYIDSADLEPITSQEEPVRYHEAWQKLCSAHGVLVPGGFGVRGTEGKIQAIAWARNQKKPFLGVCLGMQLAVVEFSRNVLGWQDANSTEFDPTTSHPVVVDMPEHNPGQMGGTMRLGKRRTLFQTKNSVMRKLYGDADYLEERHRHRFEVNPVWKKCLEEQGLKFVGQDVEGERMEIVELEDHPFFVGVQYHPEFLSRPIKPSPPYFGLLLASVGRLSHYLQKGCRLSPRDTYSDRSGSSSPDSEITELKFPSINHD
The assay can be described thus: ADP-Glo assay, human CTPS1 enzyme inhibition. The following applies: wild-type human CTPS1, 25 nM enzyme; ADP-Glo; read-out: ADP-Glo_WT_hCTPS1—25 nM_IC50 (IC50). The format is biochemical. The method in brief: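 ADP-Glo luminescence quantified ADP produced by 25 nM purified human CTPS1 (full length, FLAG-His tagged) at 25° C within the linear phase. Final substrates: ATP 120 μM, UTP 160 μM, GTP 60 μM, L-glutamine 100 μM; 1% DMSO; pH 7.4 HEPES buffer with Mg2+, KCl, DTT. Compound pre-incubated with enzyme 10 min, then with ATP/UTP 10 min.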

pIC50: −log10 of the molar value.

The pIC50 is the IC50 on a negative log10 scale, so that one unit is a factor of ten. Consider `CCOc1cncc(-c2cnc(C(=O)N(C)[C@H](c3cc(NS(=O)(=O)C4CC4)ccn3)[C@@H]3CCOC3)s2)n1` [I-64, N-((S)-(4-(cyclopropanesulfonamido)pyridin-2-yl)((S)-tetrahydrofuran-3-yl)methyl)-5-(6-ethoxypyrazin-2-yl)-N-methylthiazole-2-carboxamide], for which the pIC50 was 7.00 to 7.30.

With `CCOc1cncc(-c2cnc(C(=O)N(C)[C@@H](c3cc(NS(=O)(=O)C4CC4)ccn3)[C@H]3CCOC3)s2)n1` [I-65, N-((R)-(4-(cyclopropanesulfonamido)pyridin-2-yl)((R)-tetrahydrofuran-3-yl)methyl)-5-(6-ethoxypyrazin-2-yl)-N-methylthiazole-2-carboxamide], the pIC50 is less than 7.00.

With `CCOc1cncc(-c2cnc(C(=O)N(C)[C@@H](c3cc(NS(=O)(=O)C4CC4)ccn3)[C@@H]3CCOC3)s2)n1` [I-66, N-((R)-(4-(cyclopropanesulfonamido)pyridin-2-yl)((S)-tetrahydrofuran-3-yl)methyl)-5-(6-ethoxypyrazin-2-yl)-N-methylthiazole-2-carboxamide], the pIC50 was 7.30 to 7.60.

Regarding `CCOc1cncc(-c2ccc(C(=O)N[C@H](c3cc(NS(=O)(=O)C4CC4)ccn3)[C@H]3CCCO3)nc2)n1` [I-67, N-((R)-(4-(cyclopropanesulfonamido)pyridin-2-yl)((R)-tetrahydrofuran-2-yl)methyl)-5-(6-ethoxypyrazin-2-yl)picolinamide], the negative-log IC50 (pIC50) is 7.30 to 7.60.

For the molecule `CCOc1cncc(-c2ccc(C(=O)N[C@H](c3cc(NS(=O)(=O)C4CC4)ccn3)[C@@H]3CCCO3)nc2)n1` [I-68, N-((R)-(4-(cyclopropanesulfonamido)pyridin-2-yl)((S)-tetrahydrofuran-2-yl)methyl)-5-(6-ethoxypyrazin-2-yl)picolinamide], the pIC50 is 7.30 to 7.60.

For `CCOc1cncc(-c2ccc(C(=O)N[C@@H](c3cc(NS(=O)(=O)C4CC4)ccn3)[C@@H]3CCCO3)nc2)n1` [I-69, N-((S)-(4-(cyclopropanesulfonamido)pyridin-2-yl)((S)-tetrahydrofuran-2-yl)methyl)-5-(6-ethoxypyrazin-2-yl)picolinamide], the pIC50 was 7.30 to 7.60.

As to `CCOc1cncc(-c2ccc(C(=O)N[C@@H](c3cc(NS(=O)(=O)C4CC4)ccn3)[C@H]3CCCO3)nc2)n1` [I-70, N-((S)-(4-(cyclopropanesulfonamido)pyridin-2-yl)((R)-tetrahydrofuran-2-yl)methyl)-5-(6-ethoxypyrazin-2-yl)picolinamide], the negative logarithm of the IC50 (pIC50) is 7.30 to 7.60.

As for `CCOc1cncc(-c2cnc(C(=O)N[C@H](c3cc(NS(=O)(=O)C4CC4)ccn3)[C@H]3COCCO3)s2)n1` [I-73, N-((R)-(4-(cyclopropanesulfonamido)pyridin-2-yl)((S)-1,4-dioxan-2-yl)methyl)-5-(6-ethoxypyrazin-2-yl)thiazole-2-carboxamide], the pIC50 is 7.60 to 8.30.

For the molecule `CCOc1cncc(-c2cnc(C(=O)N[C@H](c3cc(NS(=O)(=O)C4CC4)ccn3)[C@@H]3COCCO3)s2)n1` [I-74, N-((R)-(4-(cyclopropanesulfonamido)pyridin-2-yl)((R)-1,4-dioxan-2-yl)methyl)-5-(6-ethoxypyrazin-2-yl)thiazole-2-carboxamide], the pIC50 was 7.60 to 8.30.

As for `CCOc1cncc(-c2cnc(C(=O)N[C@@H](c3cc(NS(=O)(=O)C4CC4)ccn3)[C@H]3COCCO3)s2)n1` [I-75, N-((S)-(4-(cyclopropanesulfonamido)pyridin-2-yl)((S)-1,4-dioxan-2-yl)methyl)-5-(6-ethoxypyrazin-2-yl)thiazole-2-carboxamide], the pIC50 is 7.60 to 8.30.

Consider `CCOc1cncc(-c2cnc(C(=O)N[C@@H](c3cc(NS(=O)(=O)C4CC4)ccn3)[C@@H]3COCCO3)s2)n1` [I-76, N-((S)-(4-(cyclopropanesulfonamido)pyridin-2-yl)((R)-1,4-dioxan-2-yl)methyl)-5-(6-ethoxypyrazin-2-yl)thiazole-2-carboxamide], for which the pIC50 is not below 8.30.

Take `O=C(N[C@H](c1cc(NS(=O)(=O)C2CC2)ccn1)[C@H]1COCCO1)c1ncc(-c2cnn3ccc(Cl)cc23)s1` [I-77, 5-(5-chloropyrazolo[1,5-a]pyridin-3-yl)-N-((R)-(4-(cyclopropanesulfonamido)pyridin-2-yl)((S)-1,4-dioxan-2-yl)methyl)thiazole-2-carboxamide]: the pIC50 was 7.60 to 8.30.

In the case of `O=C(N[C@H](c1cc(NS(=O)(=O)C2CC2)ccn1)[C@@H]1COCCO1)c1ncc(-c2cnn3ccc(Cl)cc23)s1` [I-78, 5-(5-chloropyrazolo[1,5-a]pyridin-3-yl)-N-((R)-(4-(cyclopropanesulfonamido)pyridin-2-yl)((R)-1,4-dioxan-2-yl)methyl)thiazole-2-carboxamide], the pIC50 was 7.60 to 8.30.

Regarding `O=C(N[C@@H](c1cc(NS(=O)(=O)C2CC2)ccn1)[C@@H]1COCCO1)c1ncc(-c2cnn3ccc(Cl)cc23)s1` [I-79, 5-(5-chloropyrazolo[1,5-a]pyridin-3-yl)-N-((S)-(4-(cyclopropanesulfonamido)pyridin-2-yl)((R)-1,4-dioxan-2-yl)methyl)thiazole-2-carboxamide], the pIC50 is 7.60 to 8.30.

Regarding `O=C(N[C@@H](c1cc(NS(=O)(=O)C2CC2)ccn1)[C@H]1COCCO1)c1ncc(-c2cnn3ccc(Cl)cc23)s1` [I-80, 5-(5-chloropyrazolo[1,5-a]pyridin-3-yl)-N-((S)-(4-(cyclopropanesulfonamido)pyridin-2-yl)((S)-1,4-dioxan-2-yl)methyl)thiazole-2-carboxamide], the pIC50 is 7.60 to 8.30.

On to `CCOc1cncc(-c2cnc(C(=O)N[C@@H](c3cc(NS(=O)(=O)C4CC4)ccn3)[C@@H]3C[C@@H]4CC[C@H]3O4)s2)n1` [I-81, N-((R)-((1R,2S,4S)-7-oxabicyclo[2.2.1]heptan-2-yl)(4-(cyclopropanesulfonamido)pyridin-2-yl)methyl)-5-(6-ethoxypyrazin-2-yl)thiazole-2-carboxamide], for which the pIC50 was not below 8.30.

`CCOc1cncc(-c2cnc(C(=O)N[C@H](c3cc(NS(=O)(=O)C4CC4)ccn3)[C@@H]3C[C@@H]4CC[C@H]3O4)s2)n1` [I-82, N-((S)-((1R,2S,4S)-7-oxabicyclo[2.2.1]heptan-2-yl)(4-(cyclopropanesulfonamido)pyridin-2-yl)methyl)-5-(6-ethoxypyrazin-2-yl)thiazole-2-carboxamide]: the pIC50 is not below 8.30.

Turning to `CCOc1cncc(-c2cnc(C(=O)N[C@H](c3cc(NS(=O)(=O)C4CC4)ccn3)[C@H]3C[C@H]4CC[C@@H]3O4)s2)n1` [I-83, N-((S)-((1S,2R,4R)-7-oxabicyclo[2.2.1]heptan-2-yl)(4-(cyclopropanesulfonamido)pyridin-2-yl)methyl)-5-(6-ethoxypyrazin-2-yl)thiazole-2-carboxamide], the negative logarithm of the IC50 (pIC50) is 7.60 to 8.30.

As to `CCOc1cncc(-c2cnc(C(=O)N[C@@H](c3cc(NS(=O)(=O)C4CC4)ccn3)[C@H]3C[C@H]4CC[C@@H]3O4)s2)n1` [I-84, N-((R)-((1S,2R,4R)-7-oxabicyclo[2.2.1]heptan-2-yl)(4-(cyclopropanesulfonamido)pyridin-2-yl)methyl)-5-(6-ethoxypyrazin-2-yl)thiazole-2-carboxamide], the pIC50 is not below 8.30.

Take `O=C(N[C@H](c1cc(NS(=O)(=O)C2CC2)ccn1)C1CCOCC1)c1ncc(-c2cnn3ccc(Cl)cc23)s1` [I-85, (S)-5-(5-chloropyrazolo[1,5-a]pyridin-3-yl)-N-((4-(cyclopropanesulfonamido)pyridin-2-yl)(tetrahydro-2H-pyran-4-yl)methyl)thiazole-2-carboxamide]: the pIC50 is 7.30 to 7.60.
